According to patent US4774248A, “Methods of treating depression and depressive states using 5-phenyl-1,4,5,6-tetrahydropyrimidine derivatives” (priority 1985, dated 1988):
Entries after “also recorded” stand apart in the source; their conditions may differ.

Experiments:
mice [1] = assay: Four plate test; assay type: in vivo; conditions: i.p.
Description: (§1) The results of toxicological and neuropsychopharmacological tests which were carried out with the products according to the invention have been summarized below. In these tests, solutions of the said products in distilled water were administered intraperitoneally in a volume of 20 ml/kg to male mice and in a volume of 5 ml/kg to male rats.
(§2) The test is performed on groups of 10 mice 30 minutes after the administration of CRL 41 378.

mice [2] = assay: Motility reduced by hypoxic aggression (acute hypobaric anoxia); assay type: in vivo; conditions: i.p.
Description: In these tests, solutions of the said products in distilled water were administered intraperitoneally in a volume of 20 ml/kg to male mice and in a volume of 5 ml/kg to male rats.

rats = assay: Overall behavior and reactivities in rats; assay type: in vivo; conditions: i.p.
Outline: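 Male mice (20 ml/kg) and male rats (5 ml/kg) dosed intraperitoneally with compound in distilled water.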

mice [3] = assay: Intergroup aggressiveness; assay type: in vivo
Outline: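 Male mice housed 3 weeks per group in cage halves split by an opaque partition; groups of 3 given CRL 41 378 i.p. in distilled water.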

[4] = test system: trembling and head twitches induced by 5-hydroxytryptophan (5-HTP); assay: Interaction with 5-hydroxytryptophan in association with an MAOI (nialamide); assay type: in vivo, male mice
Description: The purpose of the procedure used is to investigate the activity of each product according to the invention as regards the trembling induced by 5-hydroxytryptophan (5-HTP) in association with an MAOI (in this case nialamide).
Each test product, in solution in distilled water, is administered intraperitoneally in a volume of 20 ml/kg to male mice.
Groups of 10 mice receive nialamide (20 mg/kg, administered gastrically) at time T-18 h, each test product at time T-0.5 h and then (±)-5-HTP (20 mg/kg, administered intraperitoneally) at time T. Immediately after the injection of the (±)-5-HTP, the mice are individually placed in transparent plastic boxes. The generalized trembling, the partial trembling and the head twitches are noted on a yes/no basis for 2 h.

[5] = test system: stereotypies induced by apomorphine; assay: Interaction with apomorphine in rats; assay type: in vivo; conditions: i.p., apomorphine 0.5 mg/kg s.c., hydrochloride
Description: as §1
CRL 41 378 is administered to groups of 12 rats 0.5 h before the subcutaneous injection of 0.5 mg/kg of apomorphine.

mice [6] = assay: Spontaneous motility (actimeter); assay type: in vivo; conditions: i.p., hydrochloride
Description: as §1
0.5 h after they have received CRL 41 378, the mice (6 per dose, 12 control animals) are placed in an actimeter, where their motility is recorded for 30 minutes.

anesthetized dogs = assay: Cardiovascular study in anesthetized dogs; assay type: in vivo
Description: Groups of 2 adult dogs (each weighing 10 to 18 kg), anesthetized with nembutal, receive each test product (i) by intraduodenal administration at successive doses of 0.1 mg/kg, 0.5 mg/kg, 1 mg/kg, 2.5 mg/kg, 5 mg/kb, 10 mg/kg and 20 mg/kg, and then (ii) if appropriate, by intravenous administration at a dose of 10 mg/kg. The effects of 10 μg/kg of isoprenaline and/or 2 μg/kg of norepinephrine after the intraduodenal administration of a cumulative dose of 39.1 mg/kg are also assessed.
The following are measured: the total arterial blood pressure, the diastolic arterial blood pressure, the heart rate, the blood flows through the femoral and cerebral arteries and saphenous veins, the rectal temperature, the skin temperature and the pressure of the gases (essentially O2) dissolved in the arterial blood.

[7] = test system: hypothermia, trembling and peripheral cholinergic symptoms induced by oxotremorine; assay: Interaction with oxotremorine; assay type: in vivo; conditions: mice, i.p.
Outline: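 Male mice, groups of 6, given the compound intraperitoneally in distilled water (20 ml/kg) 0.5 h before 0.5 mg/kg oxotremorine i.p. Hypothermia, trembling and peripheral cholinergic symptoms were assessed.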

mice [8] = assay: Motility reduced by habituation to the enclosure; assay type: in vivo; conditions: i.p.
Description: as §1
After they have stayed in the actimeters for 18 hours, the mice (6 per dose, 12 control animals) receive CRL 41 378. They are immediately returned to their respective enclosures and, half an hour later, their motility is recorded for 30 minutes.

male mice = assay: Acute toxicity, intraperitoneal (LD0, LD30, LD60, LD100); assay type: in vivo
Description: as §1

[9] = test system: hypothermia induced by apomorphine; assay: Interaction with apomorphine by gastric administration; assay type: in vivo; conditions: Mus musculus, male mice, apomorphine 16 mg/kg s.c., read-out: dose as from which the hypothermia induced by apomorphine is opposed
Description: Each test product is administered gastrically to male mice, in a volume of 20 ml/kg, 0.50 h before the subcutaneous injection of 16 mg/kg of apomorphine.

mice [10] = assay: Asphyxiant anoxia caused by gallamine triiodoethylate; assay type: in vivo; conditions: i.p., gallamine triiodoethylate 32 mg/kg
Description: as §1
Groups of 10 mice receive CRL 41 378 30 minutes before the intraperitoneal administration of 32 mg/kg of gallamine triiodoethylate (reference curarizing agent).

mice [11] = assay: Traction; assay type: in vivo; conditions: i.p.
Description: as §1, §2

[12] = test system: depressions and depressive states; assay: Clinical trials in depression and depressive states; assay type: in vivo, human; conditions: daily oral administration to adults
Description: The clinical trials which have been undertaken have made it possible to determine that the daily dose to be administered orally to adults, in the treatment of depressions and depressive states, is generally between 3 and 120 mg for the products of the formulae Ia and Ib according to the invention.

[13] = test system: central nervous system (CNS); assay: Neuropsychopharmacological profile (conclusions of the tests); assay type: in vivo, mice and rats
Description: as §1

[14] = i.p., nialamide + (±)-5-HTP, male mice

CC(=O)N1C=NCC(c2ccccc2)C1.Cl (centres unmarked) [CRL 41 378, 1-acetyl-5-phenyl-1,4,5,6-tetrahydropyrimidine hydrochloride]
number of punished passes (mice [1]): does not modify the number of punished passes | lethal effects of hypobaric anoxia (mice [2]): At a dose of 64 mg/kg, CRL 41 378 aggravates the effects of hypobaric anoxia and causes the death of all the animals treated | motor recovery after acute hypobaric hypoxia (mice [2]): at doses of 1 mg/kg, 4 mg/kg and 16 mg/kg, CRL 41 378 does not cause a modification of the motor recovery | overall behavior and reactivities (rats; 0.5 mg/kg): moderate mydriasis for 2 h, the maximum intensity being reached 0.5 h after administration | overall behavior and reactivities (rats; 2 mg/kg): mydriasis for 3 h, the maximum intensity also being reached 0.5 h after administration | overall behavior and reactivities (rats; 32 mg/kg, hydrochloride): a decrease in the breathing rate and muscle tonus for 1 h; also recorded: exophthalmos for 1 h; also recorded: piloerection for 2 h; also recorded: salivation appearing 0.5 h after administration; also recorded: vasodilation of the paws and snout for 0.5 h; also recorded: mydriasis for 2 h, the maximum intensity being reached 0.5 h after administration | minimal effective dose (mice [3]; Mus musculus, ip, read-out: dose as from which the intergroup aggressiveness is decreased): ≥ 0.5 mg/kg | intergroup aggressiveness (number of fights) (mice [3]; mice, i.p., hydrochloride): decreases the intergroup aggressiveness as from a dose of 0.5 mg/kg but especially at doses of 2 mg/kg, 4 mg/kg and 16 mg/kg; also recorded: a decrease in the intergroup aggressiveness of mice (at doses which do not decrease the spontaneous motor activity) | analogy with β-adrenergic stimulants in the 5-HTP procedure ([4]; 5-HTP + MAOI): more closely resembles fenoterol | intensity of potentiation of 5-HTP effects ([4]; higher doses, 5-HTP + MAOI, male mice): the potentiation being very intense as from a dose of 16 mg/kg | head twitches [4, 14]: moderately potentiates the head twitches | partial trembling [4, 14]: distinctly potentiates the partial trembling | action on stereotypies induced by apomorphine [5]: at the two highest doses used (8 and 32 mg/kg), CRL 41 378 seems to cause a moderate decrease in the stereotypies induced by apomorphine; also recorded: moderate antagonism of the stereotyped movements induced by apomorphine in rats | spontaneous motor activity (mice [6]): at a dose of 16 mg/kg and especially at a dose of 64 mg/kg, CRL 41 378 decreases the spontaneous motor activity of the mice; also recorded: a substantial decrease in the spontaneous motor activity of mice | rectal temperature (anesthetized dogs): increases the rectal temperature | skin temperature (anesthetized dogs): does not cause a distinct modification of the skin temperature | arterial blood pressure (anesthetized dogs; intraduodenal): no effect on the arterial blood pressure by intraduodenal administration | arterial blood pressure (anesthetized dogs; intravenous): hypotensive by intravenous administration | effects of isoprenaline (anesthetized dogs; isoprenaline 10 μg/kg): decreases the effects of isoprenaline on the heart rate | hypertension induced by norepinephrine (anesthetized dogs; norepinephrine 2 μg/kg): decreases the hypertension induced by norepinephrine | minimal effective dose ([7]; Mus musculus, ip, read-out: dose as from which the hypothermia induced by oxotremorine is antagonized): ≥ 0.5 mg/kg | action on signs of peripheral cholinergic stimulation induced by oxotremorine ([7]; oxotremorine 0.5 mg/kg): practically no modification of the signs of peripheral cholinergic stimulation induced by oxotremorine | action on trembling induced by oxotremorine ([7]; oxotremorine 0.5 mg/kg): does not modify the intensity of the trembling induced by oxotremorine | action on hypothermia induced by oxotremorine ([7]; oxotremorine 0.5 mg/kg, hydrochloride): very intense at doses of 2 and 4 mg/kg and is then less significant for the highest doses used (16 and 64 mg/kg); also recorded: antagonism of the hypothermia induced by apomorphine, reserpine and oxotremorine in mice | resumption in the motor activity of mice accustomed to their enclosure (mice [8]): does not cause a resumption in the motor activity of mice accustomed to their enclosure | toxic signs in the animals treated (male mice; 256 mg/kg i.p.): all the animals treated exhibit dyspnea, substantial salivation and convulsions 10 minutes after administration | LD0 (maximum non-lethal dose) (male mice; intraperitoneal): greater than 256 mg/kg | minimal effective dose [9]: ≥ 0.5 mg/kg | time taken for convulsions and death / lethal effects of gallamine triiodoethylate (mice [10]): at the highest dose used (64 mg/kg), CRL 41 378 causes a moderate decrease in the time taken for convulsions and death to occur | motor incoordination / incapacity (mice [11]): does not cause motor incoordination | results in human therapy (depression) [12]: excellent results | lethal effects of the various convulsants studied ([13]; electric shock, hypobaric hypoxia, asphyxiant anoxia): aggravates the lethal effects of the various convulsants studied (electric shock, hypobaric hypoxia, asphyxiant anoxia) | antidepressant effects ([13]; i.p.): antidepressant effects appearing as from the lowest doses | peripheral anticholinergic activity ([13]; i.p.): absence of peripheral anticholinergic activity | stimulant effects ([13]; i.p.): absence of stimulant effects on the CNS | peripheral α-adrenergic stimulant effects ([13]; i.p., hydrochloride): peripheral α-adrenergic stimulant effects appearing at high doses; also recorded: an α1 stimulation component represented by salivation and mydriasis (in mice and rats) and piloerection (in rats); also recorded: moderate hyperthermia in mice; also recorded: peripheral vasodilation (tail, paws and snout) in mice and rats | sedative effects ([13]; i.p., hydrochloride): sedative effects appearing at high doses; also recorded: sedation in mice | overall neuropsychopharmacological profile ([13]; summary, hydrochloride): an antidepressant exhibiting sedative effects at high doses; also recorded: resembles β-adrenergic stimulants
